The source made the active and inactive calls.

For one assay, the target named is Estrogen receptor (Homo sapiens, UniProt P03372).
Assay [1] is described as follows: Luminescence Cell-Based Dose Response HTS to Identify Inhibitors of 5'UTR Stem-Loop Driven Prion Protein mRNA Translation in H4 Neuroglioblastoma Cells. [Related pubchem assays: 1827 (Project Summary), 1813 (Primary HTS)]. Format: functional.
The target of assay [2] is T1, Estrogen receptor beta (Homo sapiens, UniProt Q92731).
Assay [3] addresses T1, Estrogen receptor beta. The assay can be described thus: ERβ–SRC-3 coactivator interaction inhibitors, confirmation, orthogonal assay, biochemical, ELISA, streptavidin-HRP readout (AID 1060).
Assay [4] is described as follows: inhibitors of SNCA 5'UTR-driven reporter translation, confirmation, H4 neuroglioma cells, luminescence (AID 1988). Format: functional, cell-based.
Assay [5] concerns the target 72 kDa type IV collagenase (Homo sapiens, UniProt P08253). The assay can be described thus: Dose Response validation of uHTS RPN11 inhibitor hits using a MMP-2 Fluorescence assay. Type of assay: functional.
Assay [6] deals with 26S proteasome non-ATPase regulatory subunit 14 (Homo sapiens, UniProt O00487). The assay can be described thus: inhibition of proteasome subunit RPN11 – biochemical, fluorescence polarization, uHTS hits, confirmation (AID 602368). Type of assay: functional.
Chain of 26S proteasome non-ATPase regulatory subunit 14 (O00487 whole entry): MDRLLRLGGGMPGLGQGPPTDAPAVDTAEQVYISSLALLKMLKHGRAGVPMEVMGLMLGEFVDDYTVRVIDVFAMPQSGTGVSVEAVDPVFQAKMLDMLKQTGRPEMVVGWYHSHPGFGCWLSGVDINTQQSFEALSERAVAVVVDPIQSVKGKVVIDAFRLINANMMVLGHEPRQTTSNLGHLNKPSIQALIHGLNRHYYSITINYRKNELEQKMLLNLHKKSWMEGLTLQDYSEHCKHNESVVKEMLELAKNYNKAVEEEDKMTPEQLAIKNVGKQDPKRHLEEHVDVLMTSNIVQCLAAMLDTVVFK
In assay [7] the target is Protein-tyrosine kinase 2-beta (Homo sapiens, UniProt Q14289).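 Note: potency of inhibitors of PYK2 kinase phosphorylation of poly-GT substrate.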
Chain of Protein-tyrosine kinase 2-beta (Q14289 whole entry): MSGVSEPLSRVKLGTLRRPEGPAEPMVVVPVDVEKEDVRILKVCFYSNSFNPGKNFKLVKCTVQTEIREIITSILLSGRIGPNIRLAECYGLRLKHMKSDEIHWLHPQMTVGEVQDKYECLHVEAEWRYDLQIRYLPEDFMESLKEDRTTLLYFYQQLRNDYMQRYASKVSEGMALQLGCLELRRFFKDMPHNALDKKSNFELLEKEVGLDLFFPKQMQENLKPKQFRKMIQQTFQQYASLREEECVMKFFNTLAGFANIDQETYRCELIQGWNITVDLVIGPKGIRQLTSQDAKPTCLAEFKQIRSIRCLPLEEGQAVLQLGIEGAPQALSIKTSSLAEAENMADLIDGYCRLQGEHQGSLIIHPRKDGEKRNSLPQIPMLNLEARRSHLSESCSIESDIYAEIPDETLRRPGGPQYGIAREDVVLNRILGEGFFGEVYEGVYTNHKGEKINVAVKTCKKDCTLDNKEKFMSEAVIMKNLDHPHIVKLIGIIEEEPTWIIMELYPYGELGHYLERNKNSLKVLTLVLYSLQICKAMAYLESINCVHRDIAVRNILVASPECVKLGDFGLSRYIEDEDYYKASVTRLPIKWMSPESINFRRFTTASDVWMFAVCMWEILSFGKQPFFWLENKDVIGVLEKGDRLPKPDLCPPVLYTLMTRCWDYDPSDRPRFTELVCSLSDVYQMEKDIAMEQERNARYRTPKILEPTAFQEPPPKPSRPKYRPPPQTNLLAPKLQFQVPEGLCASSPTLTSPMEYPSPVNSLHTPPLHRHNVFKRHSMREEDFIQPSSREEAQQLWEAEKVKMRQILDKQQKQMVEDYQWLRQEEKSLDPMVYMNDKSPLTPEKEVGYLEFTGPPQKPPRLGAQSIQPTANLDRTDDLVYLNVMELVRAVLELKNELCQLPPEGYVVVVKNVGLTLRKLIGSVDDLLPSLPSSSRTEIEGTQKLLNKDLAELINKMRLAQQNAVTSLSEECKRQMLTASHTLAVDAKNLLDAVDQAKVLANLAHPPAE
The target in another assay is Prothrombin (Bos taurus, UniProt P00735). The assay can be described thus: thrombin inhibition, dose response, biochemical, fluorescence polarization, uHTS hits (AID 602369). Format: functional. (In fluorescence polarisation assays a small probe gives low polarisation when free and higher when bound to something large.)
Assay [8] can be described thus: inhibitors of intracellular T. cruzi replication, confirmation, NIH3T3 host cells, beta-gal luminescence (AID 2044).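 Note: intracellular parasites grown in NIH/3T3 mouse fibroblasts as host cells; luminescent beta-galactosidase reporter signal from transgenic T. cruzi replicating inside host cells; inhibitors lower the luminescence signal.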 Type of assay: functional, cell-based.
The nature of assay [9]: cytotoxicity toward NIH3T3 fibroblasts, dose response, counter-screen, cell-based, ATP luminescence, mouse fibroblasts (AID 2010).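 Note: cells exposed to compound for about 90 hours before reading.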 Type of assay: functional. In general terms: Counterscreens check selectivity or assay interference.
The nature of assay [10]: Luminescence Cell-Based Dose Confirmation HTS to Identify Activators of 5'UTR Stem-Loop Driven Alpha-Synuclein mRNA Translation in H4 Neuroglioblastoma Cells. [Related pubchem assays: 1829 (Project Summary), 1814 (Primary HTS)]. Format: functional.
Assay [11] is described as follows: Luminescence Cell-Based Dose Confirmation to Identify Activators of 5'UTR Stem-Loop Driven Alpha-Synuclein mRNA Translation in H4 Neuroglioblastoma Cells. [Related pubchem assays: 1829 (Project Summary), 1814 (Primary HTS)]. Type of assay: functional.
For another assay, the system named is H4. Briefly: Luminescence Cell-Based Dose Response HTS to Identify Activators of 5'UTR Stem-Loop Driven Prion Protein mRNA Translation in H4 Neuroglioblastoma Cells. [Related pubchem assays: 1829 (Project Summary), 1814 (Primary HTS)]. Format: functional. The conditions noted are these: Homo sapiens.
The nature of assay [12]: Luminescence Cell-Based Dose Response HTS to Identify Activators of Luciferase Translation or Activity in H4 […] Cells. [Related pubchem assays: 1829 (Project Summary), 1814 (Primary HTS)]. Format: functional.
Assay [13] can be described thus: Luminescence Cell-Based Dose Response to Identify Activators of 5'UTR Stem-Loop Driven Prion Protein mRNA Translation in H4-C Neuroglioblastoma Cells. [Related pubchem assays: 1829 (Project Summary), 1814 (Primary HTS)]. Format: functional.
The nature of assay [14]: Luminescence Cell-Based Dose Response to Identify Activators of Luciferase Translation or Activity in H4-C Neuroglioblastoma Cells. [Related pubchem assays: 1829 (Project Summary), 1814 (Primary HTS)]. Format: functional.
Assay [15] in a line: Vero E6 cell cytotoxicity, dose response, cytotoxicity control for non-replicating M. tuberculosis project, secondary assay (AID 492998). Type of assay: functional, VeroE6. The conditions noted are these: Vero C1008.
The next assay concerns INS1. The assay can be described thus: beta cell apoptosis inhibitors, cytokine rescue, dose response, luminescence, retest (AID 449756).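 Note: cell death triggered by IL-1 beta plus TNF-alpha plus IFN-gamma mixture; protective hits raise ATP signal compared with cytokine alone wells.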 Conditions: Rattus norvegicus. Type of assay: functional, cell-based.
Assay [16] addresses T2, Microphthalmia-associated transcription factor (Homo sapiens, UniProt O75030).
T2 sequence (O75030 whole entry): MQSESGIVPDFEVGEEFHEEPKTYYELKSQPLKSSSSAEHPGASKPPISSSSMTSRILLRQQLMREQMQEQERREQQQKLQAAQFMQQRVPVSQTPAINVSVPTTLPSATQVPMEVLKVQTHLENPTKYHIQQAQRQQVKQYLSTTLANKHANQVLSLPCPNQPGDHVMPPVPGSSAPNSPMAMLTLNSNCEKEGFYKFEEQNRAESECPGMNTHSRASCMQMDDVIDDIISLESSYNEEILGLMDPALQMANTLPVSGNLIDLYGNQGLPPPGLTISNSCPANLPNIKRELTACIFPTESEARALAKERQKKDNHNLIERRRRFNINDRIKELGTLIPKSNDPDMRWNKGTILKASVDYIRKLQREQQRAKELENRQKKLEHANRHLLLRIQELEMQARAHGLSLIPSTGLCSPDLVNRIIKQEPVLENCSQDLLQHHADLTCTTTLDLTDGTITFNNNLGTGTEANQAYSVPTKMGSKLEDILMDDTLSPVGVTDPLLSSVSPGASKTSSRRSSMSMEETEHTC
The assay can be described thus: TRPM1 promoter luciferase signal decrease, dose response, MITF inhibitor project, cell-based, SK-MEL-5, cherry-picked, set 3 (AID 493073).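 Note: SK-MEL-5 melanoma cells with luciferase driven by the MITF target TRPM1 promoter.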 Format: functional.

Assay [17] deals with BJ. The assay can be described thus: cells. Type of assay: functional, cell-based. The conditions noted are these: Homo sapiens.
A short description of assay [18]: microbe, parasite or virus in culture. Conditions: Mycobacterium tuberculosis. Format: functional.
The nature of assay [19]: cytotoxicity toward DRD oncogenic fibroblasts, dose response, cell-based, non-viral oncogenic, luminescence (AID 1934). Format: functional. The conditions noted are these: Homo sapiens.
Assay [20] can be described thus: THP-1 cell cytotoxicity, dose response, cytotoxicity control for non-replicating M. tuberculosis project (AID 489025). Format: functional.
The subject of assay [21] is BJ. Briefly: cytotoxicity toward BJ-TERT fibroblasts, dose response, cell-based, RAS-independent, luminescence (AID 1933). Type of assay: functional. The conditions noted are these: Homo sapiens.
For assay [22], the system named is BJ. Briefly: cytotoxicity toward BJ-TERT-LT-ST fibroblasts, dose response, cell-based, RAS-independent, luminescence (AID 1935).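 Note: BJ fibroblasts immortalized with TERT plus LT and ST oncogenes.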 Type of assay: functional. The conditions noted are these: Homo sapiens.
Assay [23] is described as follows: HepG2 cell cytotoxicity, dose response, cytotoxicity control for non-replicating M. tuberculosis project (AID 489018). Type of assay: functional. Conditions: Mycobacterium tuberculosis.

T1 sequence (Q92731 whole entry): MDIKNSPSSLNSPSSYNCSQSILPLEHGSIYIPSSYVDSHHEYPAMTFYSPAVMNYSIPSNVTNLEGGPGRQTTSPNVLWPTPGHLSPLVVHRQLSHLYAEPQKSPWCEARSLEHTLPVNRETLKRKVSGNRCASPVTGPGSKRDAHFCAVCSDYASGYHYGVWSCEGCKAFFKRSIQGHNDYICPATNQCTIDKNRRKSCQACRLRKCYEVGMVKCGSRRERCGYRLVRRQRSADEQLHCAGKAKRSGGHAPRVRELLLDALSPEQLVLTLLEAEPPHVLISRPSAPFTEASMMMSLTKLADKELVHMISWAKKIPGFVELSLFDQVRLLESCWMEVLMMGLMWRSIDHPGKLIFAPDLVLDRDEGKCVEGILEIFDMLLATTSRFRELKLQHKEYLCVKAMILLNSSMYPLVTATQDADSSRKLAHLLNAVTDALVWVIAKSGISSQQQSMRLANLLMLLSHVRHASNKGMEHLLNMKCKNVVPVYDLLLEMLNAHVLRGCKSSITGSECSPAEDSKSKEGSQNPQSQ
Chain of Estrogen receptor (P03372 whole entry): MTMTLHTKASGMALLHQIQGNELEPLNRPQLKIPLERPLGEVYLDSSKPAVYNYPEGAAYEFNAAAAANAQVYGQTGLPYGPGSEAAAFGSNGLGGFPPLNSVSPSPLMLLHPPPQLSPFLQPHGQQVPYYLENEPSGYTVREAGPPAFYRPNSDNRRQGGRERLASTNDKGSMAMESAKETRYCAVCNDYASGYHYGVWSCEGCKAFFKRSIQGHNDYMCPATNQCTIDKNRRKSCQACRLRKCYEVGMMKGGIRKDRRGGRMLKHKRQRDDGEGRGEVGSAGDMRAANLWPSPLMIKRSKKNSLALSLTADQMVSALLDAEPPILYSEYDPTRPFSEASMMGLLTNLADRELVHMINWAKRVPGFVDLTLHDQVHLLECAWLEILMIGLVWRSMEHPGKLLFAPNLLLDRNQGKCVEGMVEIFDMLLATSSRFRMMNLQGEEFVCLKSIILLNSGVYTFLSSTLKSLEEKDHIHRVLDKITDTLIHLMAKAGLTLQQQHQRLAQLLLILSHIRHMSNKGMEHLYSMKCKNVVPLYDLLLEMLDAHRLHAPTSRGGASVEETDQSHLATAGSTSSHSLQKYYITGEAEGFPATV
Chain of 72 kDa type IV collagenase (P08253 whole entry): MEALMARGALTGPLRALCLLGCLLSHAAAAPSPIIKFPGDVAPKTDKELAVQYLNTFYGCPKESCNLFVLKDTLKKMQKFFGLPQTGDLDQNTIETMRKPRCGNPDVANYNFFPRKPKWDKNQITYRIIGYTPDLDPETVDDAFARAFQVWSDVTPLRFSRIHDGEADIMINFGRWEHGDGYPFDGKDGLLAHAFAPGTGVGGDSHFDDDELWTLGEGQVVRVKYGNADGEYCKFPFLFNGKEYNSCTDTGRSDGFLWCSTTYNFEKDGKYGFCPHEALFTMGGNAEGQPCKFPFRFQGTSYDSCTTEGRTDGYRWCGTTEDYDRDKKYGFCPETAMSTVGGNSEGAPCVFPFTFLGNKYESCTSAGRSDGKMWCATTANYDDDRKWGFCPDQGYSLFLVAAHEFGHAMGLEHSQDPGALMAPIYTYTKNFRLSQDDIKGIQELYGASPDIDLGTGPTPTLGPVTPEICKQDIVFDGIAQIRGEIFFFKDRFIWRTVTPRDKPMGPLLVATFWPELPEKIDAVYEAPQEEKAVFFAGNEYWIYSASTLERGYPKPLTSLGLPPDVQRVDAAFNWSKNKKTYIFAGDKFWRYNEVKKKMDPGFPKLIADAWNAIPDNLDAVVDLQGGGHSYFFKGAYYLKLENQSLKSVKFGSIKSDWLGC

On to `CCCNC(=O)c1ccc(-c2nc3ccccc3s2)s1`, for which the figures for the IC50 against Estrogen receptor, against Estrogen receptor beta [2] and at Estrogen receptor beta [3] were 30.3 µM (not active), > 50 µM (not active) and 102 µM (not active), respectively. Moreover, the EC50 in assay [1] is 10.7 µM (inconclusive); in assay [4], 7.23 µM (active).

On to `COC(=O)c1[nH]c2ccc(C)cc2c1NC(=O)CN1CCCc2ccccc21`, for which the IC50 in [5] is > 100 µM (inactive); in assay [6], 16.7 µM (active); in assay [7], 15.2 µM (not active); at Prothrombin, > 100 µM (inactive); at Estrogen receptor beta [2], < 1.56 µM (active); against Estrogen receptor beta [3], 1.03 µM (not active). Also, the values for the EC50 (in assay [8]; in assay [9]; in the assay “cells”) were < 0.1 µM (active), > 60 µM (not active) and 0.639 µM (active), respectively.

Turning to `Cc1nc2ccc(NC(=O)c3ccc(Cl)s3)cc2s1`, the EC50 in assay [10] was < 0.1 µM (active); in assay [11], 0.363 µM (active); in the assay on H4, 12.5 µM (active); in assay [12], < 0.1 µM (active); in [13] it was 0.443 µM (active); in assay [14] it was 0.491 µM (active).

As for `COc1cc(C2Nc3ccc4ncccc4c3C3=C2C(=O)CCC3)cc(OC)c1O` (stereo not given), the IC50 in assay [7] is listed as 12.7 µM (not active).

As to `CCOc1ccc(OCc2ccc(C(=O)N/N=C(\C)c3ccccn3)cc2)cc1`, the CC50 in assay [15] is 3.37 µM (active); in [18], 4.15 µM (active); in assay [20], 1.37 µM (active); in [23] it was 5.83 µM (active). Further, the AC50 in the assay with INS1 was 0.712 µM (active); in [16], 3.64 µM (active). For the same compound, the EC50 in the assay on BJ [17] is 1.25 µM (active); in assay [19], 25.4 µM (inconclusive); in the assay with BJ [21] it was 0.75 µM (active); in the assay on BJ [22], 3.92 µM (inconclusive).

Consider `COc1ccc(C2C(=O)c3ccccc3C2=O)c(OC)c1`, for which the EC50 in [11] is 0.104 µM (inconclusive); in assay [12] it was < 0.1 µM (inconclusive); in assay [13], > 12 µM (not active); in assay [14] it was > 12 µM (not active).

In general, IC50 refers to the concentration that inhibits the measured activity by half. A word on the EC50: it is the concentration at which the effect is half-maximal. In general, AC50 refers to the concentration at which the activity in the assay is half-maximal.

The values above are taken from ChEMBL document CHEMBL1201862, “PubChem BioAssay data set” (2004).
